This is an account of results in article PMC7811009, “Oxytocin modulates local topography of human functional connectome in healthy men at rest” (Communications Biology, 2021).

The structures appear in SMILES notation.

Data set [1] deals with human functional connectome at rest. The experiment in a line: Resting-state BOLD-fMRI, graph theory: node degree (mesoscale); same doses, time and cohort. The note with it: post-hoc paired t-tests, FDR. Type of data set: in vivo. The protocol: Each experimental session began with the treatment administration protocol that lasted about 22 min in total (Fig. 8, lower panel). After drug administration, participants were guided to the MRI scanner, where eight pulsed continuous arterial spin labelling scans (each lasting approx. eight minutes) were acquired, spanning 15–104 min post-dosing (data reported elsewhere[11]). The 8-min resting state BOLD-fMRI scan reported herein was obtained at about 57 ± 3.38 min post-dosing. Participants were instructed to lie still and maintain their gaze on a centrally placed fixation cross during scanning. We assessed participants’ levels of alertness (anchors: alert-drowsy) and excitement (anchors: excited-calm) using visual analogue scales (0–100) at three different time-points during the scanning session to evaluate subjective drug effects across time (data reported elsewhere[11]).
(§1) We used the CONN functional connectivity toolbox[97] to generate brain-wide functional connectivity matrices for each subject/session. […] The default atlas of the CONN toolbox includes 132 non-overlapping ROIs spanning cortical and subcortical areas and the cerebellum using a combination of the cortical and subcortical areas from the FSL Harvard-Oxford atlas and of the cerebellar areas of the Automatic Anatomical Labelling atlas (Supplementary data 1 for a detailed description). […] Finally, we normalized our correlation measures to z-scores using the Fisher’s r-z transform per subject/session.
We then used our z-transformed connectivity matrices to construct brain graphs representing a functional connectivity network for each subject/session. We used an undirected signed weighted approach in which we kept information about the sign and weight of each of the connections between the nodes (ROIs) of our network, without making assumptions about the direction of this relationship. These connectivity matrices represent fully connected networks, where each node corresponds to each of the ROIs we used to build the functional connectivity matrices and each edge represents the z-transformed value of functional connectivity between a pair of nodes. […] We used the fully weighted networks to calculate equi-sparse networks by retaining a fixed percentage (K) of the total amount of possible edges. […]
For each of the graph metrics analysed, we summarized the different values over the range of thresholds using the area under the curve (AUC), instead of applying multiple testing for each metric/threshold. […]

The test system is the same in data set [2]. Briefly: Resting-state BOLD-fMRI: network edges (microscale), FDR and Network Based Statistics. Type of data set: in vivo.
From the text: as §1
We did so by examining treatment-related changes in mean connectivity and global efficiency of the whole-brain network (macroscale), graph properties of regional connectivity at the node level (mesoscale) and individual connections between pairs of nodes (microscale). These analyses were performed using repeated measures one-way analysis of variance, implemented in Matlab 2016. When a significant effect was found, we followed up with post-hoc paired t-tests between each pair of the four treatment conditions, using FDR correction for multiple testing.
Microscale. We performed two different analyses to investigate treatment-related changes on each individual edge of the connectivity matrices. […]

The conditions of data set [3]: cited from earlier work. An excerpt:
It is not yet clear which precise mechanisms mediate the effects of intravenous oxytocin on brain function. […] At least three mechanisms have been postulated. First, it is possible that the direct peripheral effects of oxytocin on oxytocin receptors expressed in vegetative territories, such as the heart, may be an indirect source of changes in the brain.

In data set [4] the test system is amygdala/parahippocampal gyrus and anterior cingulate. The note with it: same dose of intravenous oxytocin (10 IU), same cohort; cited from earlier work. The source says:
Our second key finding was the observation that the regional effects of exogenous oxytocin, compared to placebo, vary as a function of the route/method of administration. Particularly striking was the observation that the intravenous administration of oxytocin induced widespread changes in regional functional connectivity across many areas potentially relevant to explaining the effects of intranasal oxytocin on human behaviour and which have been classically ascribed to direct nose-to-brain transport. One of these areas is the amygdala, where we found decreased betweenness-centrality after int ...

Regarding `CC[C@H](C)[C@@H]1NC(=O)[C@H](Cc2ccc(O)cc2)NC(=O)[C@@H](N)CSSC[C@@H](C(=O)N2CCC[C@H]2C(=O)N[C@@H](CC(C)C)C(=O)NCC(N)=O)NC(=O)[C@H](CC(N)=O)NC(=O)[C@H](CCC(N)=O)NC1=O` [oxytocin], the “Nodes with decreased node degree compared to placebo” value in data set [1] (intravenous, 10 IU) is “decreased the node degree of the precuneus and right temporal pole”; in data set [1] (spray, 40 IU intranasal), “decreased the node degree of the right posterior inferior temporal gyrus”. Moreover, the “Nodes with increased node degree compared to placebo” value in data set [1] (nebuliser, 40 IU intranasal) is “increased the node degree of the left posterior superior temporal gyrus and left cerebellum (area 7)”; in data set [1] (spray, 40 IU intranasal), “increased node degree of the brainstem, left cerebellum (area 1) and right intracalcarine cortex”. In addition, the “Connectivity of individual edges across the four treatment conditions” value in data set [2] (FDR correction for the number of edges) was “did not find any individual edge where the four treatment conditions differed in connectivity”. In addition, the “Connectivity of subnetworks across the four treatment conditions” value in data set [2] (NBS, irrespective of the primary threshold used) is given as “did not identify any subnetwork where the four treatment conditions differed on connectivity”. The “Amount crossing the blood–brain barrier (BBB)” value in data set [3] is recorded as “very small amounts”. Moreover, in data set [3] (same doses/methods and cohort of participants), the “Effects on heart-rate or heart-rate variability” value is on record as “absence of effects”. Moreover, the “Effect on rCBF” value in data set [4] is “decreases rCBF in the amygdala/parahippocampal gyrus and in the anterior cingulate”.
